Measured values taken from patent US20240181080A1, “METHOD FOR CONTROLLING HETEROGENEITY OF VASCULAR ENDOTHELIAL CELLS BY UTILIZING SYMPATHETIC NERVES” (priority 2021, published 2024).
Structures can show the parent of a compound that is named as a salt.

Columns and labels:
[1] = Example 1: microCT of the trabecular bone at the femoral epiphyseal end, after intraosseous hM3Dq virus and CNO injection; assay type: in vivo, TH-Cre transgenic mouse; settings: CNO 1 mg/kg every 48 h for 4 weeks
[2] = Example 2: microCT of the trabecular bone at the femoral epiphyseal end, after intraosseous hM4Di virus and CNO injection; assay type: in vivo, TH-Cre transgenic mouse; settings: CNO 1 mg/kg every 48 h for 4 weeks
[3] = test system: H-subtype bone vascular endothelial cells; assay: Example 2: fluorescence microscopy (CD31, EMCN) of bone vascular endothelial cells at the femoral epiphyseal end, after intraosseous hM4Di virus and CNO injection; assay type: in vivo, TH-Cre transgenic mouse; settings: hM4Di side vs mCherry control side; CNO 1 mg/kg every 48 h for 4 weeks
[4] = test system: H-subtype bone vascular endothelial cells; assay: Example 1: fluorescence microscopy (CD31, EMCN) of bone vascular endothelial cells at the femoral epiphyseal end, after intraosseous hM3Dq virus and CNO injection; assay type: in vivo, TH-Cre transgenic mouse; settings: hM3Dq side vs mCherry control side; CNO 1 mg/kg every 48 h for 4 weeks
Procedure: A TH-Cre transgenic mouse aged 4 weeks was selected and anesthetized, and then the skin and muscle on the femur of the mouse were carefully parted. A hole was made in the femur using a small needle to reach the marrow cavity. Using a microsyringe, 1 μL of pAAV-hSyn-DIO-hM3D(Gq)-mCherry with a viral titer of about […] was slowly injected into the long bone marrow cavity of the TH-Cre mouse on one side of the femur in the lower limb through the small hole, serving as an experimental group (recorded as hM3Dq); on the other side, pAAV-hSyn-DIO-mCherry was injected, serving as a control group (recorded as mCherry). […]
After recovery of the mouse and 6 weeks of expression of the gene carried by the virus, CNO was injected (at a dose to achieve a concentration of 1 mg/kg in the mouse) every 48 h for 4 consecutive weeks. […] Data were expressed as (Means±S.E.M.); P<0.05 was considered a significant difference.
CD31 is marked with green fluorescence, and EMCN is marked with red fluorescence; both are markers for H-subtype bone vascular endothelium. The stronger the fluorescence intensity, the more complete the vascular morphology, indicating greater expression of CD31 and EMCN, i.e., the higher number of the H-subtype bone vascular endothelial cells. […]

hM3Dq = hM3Dq (Homo sapiens, UniProt P20309, A239G/Y149C); settings: comparator not stated; patent notes structural similarity to clozapine; cited from earlier work
hM3Dq, sequence (P20309 whole entry Y149C/A239G): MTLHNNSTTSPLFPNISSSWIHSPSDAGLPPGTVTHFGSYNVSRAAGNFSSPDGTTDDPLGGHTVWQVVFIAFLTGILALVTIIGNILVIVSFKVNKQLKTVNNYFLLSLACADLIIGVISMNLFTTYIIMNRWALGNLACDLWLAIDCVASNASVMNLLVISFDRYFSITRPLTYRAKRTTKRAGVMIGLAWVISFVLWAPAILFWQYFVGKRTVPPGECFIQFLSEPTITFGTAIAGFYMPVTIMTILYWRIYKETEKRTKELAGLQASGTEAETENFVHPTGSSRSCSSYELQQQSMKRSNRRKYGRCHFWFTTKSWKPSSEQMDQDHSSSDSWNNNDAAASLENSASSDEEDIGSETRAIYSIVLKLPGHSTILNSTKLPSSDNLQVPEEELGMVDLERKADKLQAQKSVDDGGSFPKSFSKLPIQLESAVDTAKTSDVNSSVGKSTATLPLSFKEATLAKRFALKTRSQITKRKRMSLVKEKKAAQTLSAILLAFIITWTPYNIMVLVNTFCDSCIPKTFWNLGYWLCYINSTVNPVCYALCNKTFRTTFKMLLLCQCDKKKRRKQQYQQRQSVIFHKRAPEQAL

hM4Di = molecular target: T1, hM4Di (Homo sapiens, UniProt P08173, A203G/Y113C); settings: comparator not stated; patent notes structural similarity to clozapine; cited from earlier work
T1 sequence (P08173 1-479 Y113C/A203G): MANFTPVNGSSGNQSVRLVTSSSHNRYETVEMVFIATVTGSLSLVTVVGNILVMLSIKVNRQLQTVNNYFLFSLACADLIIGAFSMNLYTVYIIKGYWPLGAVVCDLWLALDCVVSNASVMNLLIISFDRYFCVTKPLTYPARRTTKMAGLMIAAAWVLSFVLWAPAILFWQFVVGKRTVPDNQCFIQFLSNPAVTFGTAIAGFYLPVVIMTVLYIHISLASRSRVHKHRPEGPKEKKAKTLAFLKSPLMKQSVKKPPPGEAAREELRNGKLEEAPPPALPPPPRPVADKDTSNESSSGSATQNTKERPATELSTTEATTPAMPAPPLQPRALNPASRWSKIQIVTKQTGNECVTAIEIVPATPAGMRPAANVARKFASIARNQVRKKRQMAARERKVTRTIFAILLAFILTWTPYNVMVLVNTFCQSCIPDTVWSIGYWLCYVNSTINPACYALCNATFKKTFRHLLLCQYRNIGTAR

[5] = test system: L-subtype vascular endothelium; settings: aged C57BL/6J male mice; prior art; cited from earlier work

In the case of C[N+]1([O-])CCN(C2=Nc3cc(Cl)ccc3Nc3ccccc32)CC1 [CNO, Clozapine N-oxide], the “bone mass of the trabecular bone” value [1] is reported as “rise”, the “bone mass of the trabecular bone” value [2] is reported as “decrease” and the “number of the H-subtype bone vascular endothelial cells” value [3] is reported as “reduced”. The sympathetic nerve activity [3] was “inhibited”, the “number of the H-subtype bone vascular endothelial cells near the long bone growth plate” value [4] was “increased” and the sympathetic nerve activity [4] was “activated”.
In the case of CN1CCN(C2=Nc3ccccc3Nc3ccccc32)CC1 [Deschloroclozapine], the “affinity for hM3Dq” value (hM3Dq) is listed as “higher” and the “affinity for hM4Di” value (hM4Di) is listed as “higher”.
In the case of CC(=O)N(O)CCCCCNC(=O)CCC(=O)N(O)CCCCCNC(=O)CCC(=O)N(O)CCCCCN [deferoxamine mesylate], the bone mineral density [5] is listed as “increasing” and the “reverse transformation of L-subtype vascular endothelium into H-subtype vascular endothelium” value [5] is listed as “promotes”.
